Results as given in the supplement of paper PMC7661543.
± gives the standard deviation of the averaged measurements.

Key:
Test in all cases: relative cell number vs DMSO control (72 h) (% of DMSO); higher = less growth inhibition (more cells)
Conditions in all cases: sgRNA knockout: sgNT
[1] = system: HCC-38
Summary of the method: (§1)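 After 6 days of induction with 100 ng/mL doxycycline, pooled Cas9-engineered breast cancer lines were plated at 5000 cells per 96-well and dosed in duplicate for 72 h at four 10-fold concentrations (10 nM–10 μM or 1 nM–1 μM). Cell numbers came from sequenced sgRNA and cell-line barcode reads, interpolated against 293T spike-in standard curves made for each sample. Relative cell number is reported against the median of DMSO-treated samples as a percent.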

[2] = system: SKBR3
Summary of the method: as §1

[3] = system: BT-20
Summary of the method: as §1

[4] = system: ZR-75-1
Summary of the method: as §1

[5] = system: MDA-MB-231
Summary of the method: as §1

Row | Structure (SMILES) | relative cell number ([1]; 10 nM) | relative cell number ([1]; 100 nM) | relative cell number ([1]; 1000 nM) | relative cell number ([1]; 10000 nM) | relative cell number ([2]; 10 nM) | relative cell number ([2]; 100 nM) | relative cell number ([2]; 1000 nM) | relative cell number ([2]; 10000 nM) | relative cell number ([3]; 10 nM) | relative cell number ([3]; 100 nM) | relative cell number ([3]; 1000 nM) | relative cell number ([3]; 10000 nM) | relative cell number ([4]; 10 nM) | relative cell number ([4]; 100 nM) | relative cell number ([4]; 1000 nM) | relative cell number ([4]; 10000 nM) | relative cell number ([5]; 10 nM) | relative cell number ([5]; 100 nM) | relative cell number ([5]; 1000 nM) | relative cell number ([5]; 10000 nM)
1 | CCCc1nn(C)c2c(=O)[nH]c(-c3cc(S(=O)(=O)N4CCN(C)CC4)ccc3OCC)nc12 [Sildenafil] | 89.5 ± 15 | 92.7 ± 4.1 | 103 ± 9.7 | 124 ± 18 | 82.23 ± 0.8 | 91.7 ± 25 | 62.7 ± 0.37 | 68.1 ± 16 | 95.7 ± 16 | 110 ± 2.7 | 95.2 ± 0.97 | 107 ± 3.9 | 105 ± 9.5 | 117 ± 58 | 86.3 ± 26 | 57.6 ± 2.1 | 114 ± 8.2 | 85 ± 15 | 97.7 ± 22 | 57.1 ± 8.9
2 | CCC(C)(C)C(=O)O[C@H]1C[C@@H](C)C=C2C=C[C@H](C)[C@H](CC[C@@H]3C[C@@H](O)CC(=O)O3)[C@H]21 [Simvastatin] | 90.5 ± 2.1 | 96 ± 21 | 103 ± 12 | 87.5 ± 13 | 95.7 ± 4.9 | 60.8 ± 3.1 | 113 ± 23 | 66.7 ± 15 | 108 ± 18 | 72.5 ± 13 | 89.7 ± 26 | 91.4 ± 19 | 95.6 ± 57 | 75.2 ± 6 | 109 ± 39 | 75.6 ± 20 | 130 ± 20 | 115 ± 28 | 82.6 ± 8.9 | 34.2 ± 13
3 | N[C@@H](CC(=O)N1CCn2c(nnc2C(F)(F)F)C1)Cc1cc(F)c(F)cc1F [Sitagliptin] | 106 ± 10 | 99.2 ± 12 | 106 ± 5 | 92.2 ± 1.9 | 87.3 ± 2.4 | 89.5 ± 3.5 | 82.6 ± 2.9 | 89.8 ± 3.9 | 107 ± 24 | 90.6 ± 5.2 | 74.2 ± 14 | 123 ± 24 | 118 ± 6.4 | 84.6 ± 64 | 124 ± 34 | 96.5 ± 5.2 | 114 ± 63 | 86.6 ± 14 | 113 ± 32 | 120 ± 77
4 | CNC(=O)c1cc(Oc2ccc(NC(=O)Nc3ccc(Cl)c(C(F)(F)F)c3)cc2)ccn1 [Sorafenib] | 97.1 ± 9.2 | 133 ± 45 | 124 ± 8.8 | 54.6 ± 2.4 | 102 ± 4.4 | 97.1 ± 4.3 | 106 ± 2.8 | 47.8 ± 11 | 116 ± 3.8 | 100 ± 13 | 108 ± 36 | 50.8 ± 8.9 | 70.2 ± 11 | 104 ± 2.9 | 87.4 ± 19 | 41.7 ± 17 | 86.7 ± 5 | 93 ± 8.3 | 90.7 ± 10 | 41.1 ± 4.4
5 | Fc1ccc(CNc2ncnc3ccc(F)cc23)cc1 [Spautin1] | 104 ± 8 | 99.2 ± 11 | 111 ± 3.9 | 106 ± 1.6 | 87.9 ± 40 | 85.3 ± 0.86 | 87.4 ± 8.4 | 92 ± 23 | 96.8 ± 34 | 86 ± 36 | 89.8 ± 13 | 88.6 ± 19 | 55.6 ± 14 | 70.6 ± 3.6 | 94.4 ± 13 | 49.3 ± 9.3 | 124 ± 29 | 97 ± 34 | 77.7 ± 26 | 74.8 ± 8
6 | CC(C)n1cnc2c(NCCc3ccc(O)cc3)nc(-c3csc4ccccc34)nc21 [StemRegenin1] | 90 ± 7.6 | 116 ± 2.2 | 104 ± 2.8 | 86 ± 4 | 103 ± 9 | 108 ± 14 | 85.7 ± 28 | 29.6 ± 8.4 | 98.5 ± 13 | 115 ± 20 | 94.3 ± 36 | 55 ± 7.7 | 65.1 ± 15 | 135 ± 5.4 | 153 ± 85 | 30.4 ± 12 | 101 ± 24 | 97.5 ± 25 | 132 ± 74 | 75.9 ± 11
7 | NC(=O)Nc1sc(-c2ccc(F)cc2)cc1C(N)=O [TPCA1] | 90.2 ± 2.3 | 94.5 ± 5.5 | 100 ± 6.1 | 74.1 ± 4.5 | 92.2 ± 32 | 93.1 ± 17 | 102 ± 8.7 | 54.5 ± 1.1 | 119 ± 19 | 101 ± 34 | 102.8 ± 0.57 | 69.2 ± 3.1 | 104 ± 42 | 94.7 ± 6 | 99.5 ± 6.5 | 43.1 ± 5.7 | 111 ± 21 | 127 ± 23 | 130 ± 4.7 | 69.6 ± 7.9
8 | C=CC[C@@H]1/C=C(\C)C[C@H](C)C[C@H](OC)[C@H]2O[C@@](O)(C(=O)C(=O)N3CCCC[C@H]3C(=O)O[C@H](/C(C)=C/[C@@H]3CC[C@@H](O)[C@H](OC)C3)[C@H](C)[C@@H](O)CC1=O)[C@H](C)C[C@@H]2OC [Tacrolimus] | 117 ± 8.4 | 99.57 ± 0.7 | 115 ± 14 | 114 ± 5.7 | 108 ± 22 | 90.6 ± 11 | 101 ± 17 | 128.1 ± 0.39 | 110 ± 2.2 | 105 ± 4.6 | 101 ± 16 | 120 ± 26 | 108 ± 7.9 | 91.5 ± 29 | 85.6 ± 18 | 92.8 ± 28 | 133 ± 27 | 106 ± 7.6 | 96.7 ± 7 | 135 ± 12
9 | Cn1nnc2c(C(N)=O)ncn2c1=O [Temozolomide] | 115 ± 2.3 | 89.6 ± 1.4 | 113 ± 6.5 | 137 ± 26 | 111 ± 8.3 | 84.7 ± 20 | 104 ± 27 | 96.1 ± 40 | 106 ± 24 | 111 ± 30 | 111 ± 14 | 132 ± 37 | 89.66 ± 0.62 | 103 ± 16 | 81.7 ± 5.9 | 86.6 ± 3.4 | 125 ± 13 | 108 ± 27 | 89 ± 25 | 101.6 ± 0.8
10 | COc1cc([C@@H]2c3cc4c(cc3[C@@H](O[C@@H]3O[C@@H]5CO[C@@H](c6cccs6)O[C@H]5[C@H](O)[C@H]3O)[C@H]3COC(=O)[C@H]23)OCO4)cc(OC)c1O [Teniposide] | 87.1 ± 7.7 | 43 ± 5.7 | 25.52 ± 0.049 | 13.4 ± 2 | 101 ± 6.8 | 26.4 ± 3.2 | 18.4 ± 2.3 | 15.9 ± 0.19 | 98.2 ± 1.9 | 67.9 ± 24 | 51.2 ± 5.6 | 22.6 ± 5.8 | 55.8 ± 2.6 | 31.4 ± 6.7 | 29.9 ± 8.2 | 26.1 ± 0.97 | 75.8 ± 16 | 25.4 ± 1.1 | 11 ± 1.3 | 11.2 ± 4.8
11 | O=C1CCC(N2C(=O)c3ccccc3C2=O)C(=O)N1 (stereo not given) [Thalidomide] | 108 ± 8.4 | 95.3 ± 1.2 | 117 ± 4.4 | 115 ± 10 | 109 ± 39 | 59.4 ± 1.9 | 115 ± 17 | 106 ± 2.4 | 118 ± 11 | 91 ± 0.81 | 114 ± 18 | 113 ± 9 | 79.7 ± 19 | 90.8 ± 6.8 | 74.2 ± 13 | 97.2 ± 55 | 128 ± 37 | 74.8 ± 24 | 102 ± 29 | 124 ± 19
12 | CN(C)c1cc(NC(=O)CNC(C)(C)C)c(O)c2c1C[C@H]1C[C@H]3[C@H](N(C)C)C(O)=C(C(N)=O)C(=O)[C@@]3(O)C(O)=C1C2=O [Tigecycline] | 87.5 ± 6.1 | 107 ± 30 | 88.8 ± 2.6 | 102 ± 6.5 | 92.5 ± 19 | 69.1 ± 4.5 | 104 ± 33 | 65.6 ± 5.3 | 104 ± 12 | 97.4 ± 4.4 | 112 ± 24 | 118 ± 3.6 | 91.5 ± 11 | 96.2 ± 29 | 123 ± 24 | 90.1 ± 21 | 117 ± 16 | 92.1 ± 21 | 123 ± 18 | 83 ± 9.6
